Patent US8785156B2, “TLE3 as a marker for chemotherapy” (Clarient Diagnostic Services, Inc., priority 2007, dated 2014)

Test system: ovarian cancer patients (UAB cohort)
Assay: Kaplan-Meier recurrence curves, University of Alabama at Birmingham (UAB) ovarian cancer cohort, patients classified by TLE3 antibody staining
Format: in vivo, human
Details: all patients received paclitaxel, most also platinum chemotherapy (carboplatin or cisplatin)
Source text: All patients received paclitaxel. Most patients also received platinum chemotherapy (carboplatin or cisplatin). Recurrence data from TLE3-positive and TLE3-negative patients in this subset were used to generate the top and bottom curves, respectively. As shown in the Figure, antibody binding to the TLE3 marker correlated with prognosis in these treated patients (HR=0.64, p<0.049).
Kaplan-Meier recurrence curves that were generated using patients in the RP breast cancer cohort that received chemotherapy are consistent with this prediction model (see FIG. 6, HR=0.194, p=0.010). Kaplan-Meier recurrence curves that were generated using patients in the UAB ovarian cancer cohort that received chemotherapy are also consistent with this prediction model (see FIG. 18, HR=0.64, p=0.049).

## CC(=O)O[C@H]1C(=O)[C@@]2(C)[C@H]([C@H](OC(=O)c3ccccc3)[C@]3(O)C[C@H](OC(=O)[C@H](O)[C@@H](NC(=O)c4ccccc4)c4ccccc4)C(C)=C1C3(C)C)[C@]1(OC(C)=O)CO[C@@H]1C[C@@H]2O [paclitaxel]
  HR (recurrence, TLE3-positive vs TLE3-negative patients): 0.64
